Measurements published in US12139487B2, “Compounds and uses thereof” (Foghorn Therapeutics Inc., priority 2022, dated 2024).

How the values were obtained:
BRM = target: T1, BRM (Homo sapiens, UniProt P51531); assay: ATPase catalytic activity assay (ADP-Glo), BRM; assay type: biochemical; conditions: Table 10; for Ratio (BRG1 IC50 (μM) divided by BRM IC50 (μM)): ATPase assay, selectivity BRG1/BRM; for IC50: ATPase catalytic activity assay (ADP-Glo)
T1 construct: made in house; host or cells: High Five insect cells
T1 sequence (P51531 whole entry): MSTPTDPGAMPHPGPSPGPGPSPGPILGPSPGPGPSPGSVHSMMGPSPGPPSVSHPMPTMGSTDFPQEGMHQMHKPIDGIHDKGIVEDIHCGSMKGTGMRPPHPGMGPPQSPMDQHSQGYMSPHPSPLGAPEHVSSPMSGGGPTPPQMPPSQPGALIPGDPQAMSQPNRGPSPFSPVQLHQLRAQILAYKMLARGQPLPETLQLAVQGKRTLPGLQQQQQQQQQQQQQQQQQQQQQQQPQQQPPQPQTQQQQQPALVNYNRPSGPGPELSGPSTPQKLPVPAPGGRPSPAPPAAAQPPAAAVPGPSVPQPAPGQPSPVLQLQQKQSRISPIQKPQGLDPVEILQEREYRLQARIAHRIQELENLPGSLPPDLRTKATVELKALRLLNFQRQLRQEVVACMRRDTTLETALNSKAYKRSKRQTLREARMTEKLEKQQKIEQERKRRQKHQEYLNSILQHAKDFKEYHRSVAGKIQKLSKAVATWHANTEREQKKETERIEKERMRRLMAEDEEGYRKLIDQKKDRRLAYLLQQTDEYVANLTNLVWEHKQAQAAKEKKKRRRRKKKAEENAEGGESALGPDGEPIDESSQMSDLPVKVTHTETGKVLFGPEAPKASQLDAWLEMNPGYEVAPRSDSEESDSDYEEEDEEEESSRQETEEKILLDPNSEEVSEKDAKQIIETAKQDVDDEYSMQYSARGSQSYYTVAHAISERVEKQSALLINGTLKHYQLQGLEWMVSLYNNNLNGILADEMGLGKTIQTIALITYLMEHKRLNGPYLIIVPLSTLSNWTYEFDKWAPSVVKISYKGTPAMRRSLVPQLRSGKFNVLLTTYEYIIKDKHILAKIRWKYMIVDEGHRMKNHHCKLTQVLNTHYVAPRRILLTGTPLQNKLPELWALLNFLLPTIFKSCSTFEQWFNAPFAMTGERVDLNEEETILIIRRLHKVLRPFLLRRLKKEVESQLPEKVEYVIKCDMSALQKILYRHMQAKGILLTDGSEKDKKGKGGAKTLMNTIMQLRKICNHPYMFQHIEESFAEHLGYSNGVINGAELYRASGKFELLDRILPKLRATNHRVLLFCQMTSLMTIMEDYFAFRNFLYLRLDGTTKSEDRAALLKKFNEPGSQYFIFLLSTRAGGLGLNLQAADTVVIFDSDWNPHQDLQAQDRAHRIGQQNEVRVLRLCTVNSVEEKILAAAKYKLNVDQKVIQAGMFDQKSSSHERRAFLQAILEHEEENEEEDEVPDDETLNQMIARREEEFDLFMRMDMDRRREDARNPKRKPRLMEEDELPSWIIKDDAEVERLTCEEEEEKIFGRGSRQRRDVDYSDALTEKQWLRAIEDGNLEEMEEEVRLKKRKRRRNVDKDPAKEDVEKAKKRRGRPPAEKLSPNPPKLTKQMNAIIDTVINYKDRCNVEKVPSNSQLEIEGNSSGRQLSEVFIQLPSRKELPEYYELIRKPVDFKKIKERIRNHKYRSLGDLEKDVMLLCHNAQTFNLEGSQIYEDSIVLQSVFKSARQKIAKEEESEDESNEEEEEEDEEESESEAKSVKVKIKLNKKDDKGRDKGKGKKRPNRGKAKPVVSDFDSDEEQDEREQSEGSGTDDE
Method: (§1) The ATPase catalytic activity of BRM or BRG-1 was measured by an in vitro biochemical assay using ADP-Glo™ (Promega, V9102). The ADP-Glo™ kinase assay is performed in two steps once the reaction is complete. The first step is to deplete any unconsumed ATP in the reaction. The second step is to convert the reaction product ADP to ATP, which will be utilized by the luciferase to generate luminesce and be detected by a luminescence reader, such as Envision.
The assay reaction mixture […] contains 30 nM of BRM or BRG-1, 20 nM salmon sperm DNA (from Invitrogen, UltraPure™ Salmon Sperm DNA Solution, cat #15632011), and 400 μM of ATP in the ATPase assay buffer, which comprises of 20 mM Tris, pH 8, 20 mM MgCl2, 50 mM NaCl, 0.1% Tween-20, and 1 mM fresh DTT (Pierce™ DTT (Dithiothreitol), cat #20290). The reaction is initiated by the addition of the 2.5 μL ATPase solution to 2.5 μL ATP/DNA solution on low volume white Proxiplate-384 plus plate (PerkinElmer, cat #6008280) and incubates at room temperature for 1 hour. Then, following addition of 5 μL of ADP-Glo™ Reagent provided in the kit, the reaction incubates at room temperature for 40 minutes. Then, 10 μL of Kinase Detection Reagent provided in the kit is added to convert ADP to ATP, and the reaction incubates at room temperature for 60 minutes. Finally, luminescence measurement is collected with a plate-reading luminometer, such as Envision.

BRG-1 = target: T2, BRG-1 (Homo sapiens, UniProt P51532); assay: ATPase catalytic activity assay (ADP-Glo), BRG-1; assay type: biochemical; conditions: Table 10, read-out: BRG1 IC50
T2 construct: made in house; host or cells: High Five insect cells
T2 sequence (P51532 whole entry): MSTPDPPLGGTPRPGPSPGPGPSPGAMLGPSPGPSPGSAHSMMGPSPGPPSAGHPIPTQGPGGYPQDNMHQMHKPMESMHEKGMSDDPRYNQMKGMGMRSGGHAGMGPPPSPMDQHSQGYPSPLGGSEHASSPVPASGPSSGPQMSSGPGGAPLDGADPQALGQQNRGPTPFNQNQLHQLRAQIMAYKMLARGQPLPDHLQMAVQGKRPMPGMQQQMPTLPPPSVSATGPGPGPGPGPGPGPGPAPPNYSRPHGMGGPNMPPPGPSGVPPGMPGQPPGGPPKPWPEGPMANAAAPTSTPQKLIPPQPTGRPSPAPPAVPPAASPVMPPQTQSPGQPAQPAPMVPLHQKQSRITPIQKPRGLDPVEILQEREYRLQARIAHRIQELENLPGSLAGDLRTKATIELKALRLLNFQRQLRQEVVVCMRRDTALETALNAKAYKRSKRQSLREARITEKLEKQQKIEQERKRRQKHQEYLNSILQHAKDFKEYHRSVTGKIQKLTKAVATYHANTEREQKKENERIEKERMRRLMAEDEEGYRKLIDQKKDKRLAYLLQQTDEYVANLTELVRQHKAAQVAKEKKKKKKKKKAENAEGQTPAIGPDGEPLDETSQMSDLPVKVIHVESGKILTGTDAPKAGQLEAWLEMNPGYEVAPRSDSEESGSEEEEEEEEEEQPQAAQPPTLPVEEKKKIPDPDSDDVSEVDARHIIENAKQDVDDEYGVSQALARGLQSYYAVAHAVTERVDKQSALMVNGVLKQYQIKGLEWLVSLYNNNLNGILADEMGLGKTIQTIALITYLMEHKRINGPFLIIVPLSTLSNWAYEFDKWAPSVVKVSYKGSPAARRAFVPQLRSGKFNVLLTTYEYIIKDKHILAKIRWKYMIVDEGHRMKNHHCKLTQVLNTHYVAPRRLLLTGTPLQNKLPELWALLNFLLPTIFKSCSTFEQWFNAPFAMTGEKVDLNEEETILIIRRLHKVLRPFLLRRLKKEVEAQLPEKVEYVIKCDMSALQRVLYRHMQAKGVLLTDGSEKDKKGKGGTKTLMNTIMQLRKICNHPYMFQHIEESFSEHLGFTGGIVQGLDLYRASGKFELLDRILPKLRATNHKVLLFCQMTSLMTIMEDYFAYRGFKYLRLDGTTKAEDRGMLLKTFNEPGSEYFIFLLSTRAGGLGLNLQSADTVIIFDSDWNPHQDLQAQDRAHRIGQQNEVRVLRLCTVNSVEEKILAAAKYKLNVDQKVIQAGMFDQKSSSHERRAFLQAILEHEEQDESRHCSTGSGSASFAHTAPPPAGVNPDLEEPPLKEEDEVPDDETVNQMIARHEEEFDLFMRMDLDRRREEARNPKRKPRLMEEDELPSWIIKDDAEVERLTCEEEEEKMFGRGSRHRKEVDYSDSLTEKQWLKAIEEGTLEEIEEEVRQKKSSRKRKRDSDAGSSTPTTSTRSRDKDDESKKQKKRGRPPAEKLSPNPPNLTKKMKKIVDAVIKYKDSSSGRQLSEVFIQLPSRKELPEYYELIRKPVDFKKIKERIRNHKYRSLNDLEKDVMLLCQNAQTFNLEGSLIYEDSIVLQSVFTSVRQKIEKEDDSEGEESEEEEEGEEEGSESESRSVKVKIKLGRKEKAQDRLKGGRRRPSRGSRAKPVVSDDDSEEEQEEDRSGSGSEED
Method: as §1
Then, following addition of 5 μL of ADP-Glo™ Reagent provided in the kit, the reaction incubates at room temperature for 40 minutes. Then, 10 μL of Kinase Detection Reagent provided in the kit is added to convert ADP to ATP, and the reaction incubates at room temperature for 60 minutes. Finally, luminescence measurement is collected with a plate-reading luminometer, such as Envision.

| SMILES | Ratio (BRG1 IC50 (μM) divided by BRM IC50 (μM)) (BRM) | IC50 (BRM) [nM] | IC50 (BRG-1) [nM] |
| --- | --- | --- | --- |
| C#Cc1cc(C(=O)NCc2cc3nc(-c4cccc(N5C[C@@H](C)O[C@@H](C)C5)n4)ccc3cn2)cc2c1OCC[C@@H](F)S2(=O)=O [Compound 315] | 43.60 | 24.9 | 1080 |
| O=C(NCc1cc2nc(N3CCOc4cc(F)cnc43)ccc2cn1)c1cc(F)c2c(c1)S(=O)(=O)[C@@H](F)CCO2 [Compound 282] | 17.58 | 9.4 | 163 |
| O=C(NCc1cc2nc(N3CCOc4ccc(C5CC5)nc43)ccc2cn1)c1cc(F)c2c(c1)S(=O)(=O)[C@@H](F)COC2 [Compound 72] | 21.76 | 2.8 | 66.6 |
| O=C(NCc1cc2nc(-c3cccc(C4CC4)n3)ccc2cn1)c1cc(Cl)c2c(c1)S(=O)(=O)[C@@H](F)COC2 [Compound 302] | 30.11 | 10 | 348 |
| O=C(NCc1cc2nc(N3CCOc4cc(C56CC(C5)C6)cnc43)ccc2cn1)c1cc(F)c2c(c1)S(=O)(=O)[C@@H](F)COC2 [Compound 146] | 15.71 | 4.8 | 72.9 |
| C[C@H](F)c1cnc2c(c1)OCCN2c1ccc2cnc(CNC(=O)c3cc(F)c4c(c3)S(=O)(=O)[C@@H](F)CCO4)cc2n1 [Compound 198] | 17.01 | 6 | 103 |
| C[C@@H]1CN(c2cccc(/C=C/c3ccnc(CNC(=O)c4cc(F)c5c(c4)S(=O)(=O)[C@@H](F)CCO5)c3)n2)C[C@H](C)O1 [Compound 52, (R)—N-((4-((E)-2-(6-((2S,6R)-2,6-dimethylmorpholino)pyridin-2-yl)vinyl)pyridin-2-yl)methyl)-4,9-difluoro-3,4-dihydro-2H-benzo[b][1,4]oxathiepine-7-carboxamide 5,5-dioxide] | 22.78 | 2.5 | 56 |
| O=C(NCc1cc2cc(-c3cncc(N4CCCC4)n3)ccc2cn1)c1cc(F)c2c(c1)S(=O)(=O)[C@@H](F)CCO2 [Compound 101] | 23.62 | 3.5 | 83.4 |
| O=C(NCc1cc2nc(N3CCOc4cc(N5CCC[C@H](F)C5)cnc43)ccc2cn1)c1cc(F)c2c(c1)S(=O)(=O)[C@@H](F)CCO2 [Compound 286] | 20.51 | 9.6 | 196 |
| CN(C)c1ccnc2c1OCCN2c1ccc2cnc(CNC(=O)c3cc(F)c4c(c3)S(=O)(=O)[C@@H](F)CCO4)cc2n1 [Compound 296] | 11.58 | 9.9 | 114 |
| O=C(NCc1cc2nc(-c3cccc(N4CCC4)n3)ccc2cn1)c1cc(F)c2c(c1)S(=O)(=O)[C@@H](F)COC2 [Compound 111] | 19.81 | 3.9 | 79.1 |
| CCOCc1ccnc2c1OCCN2c1ccc2cnc(CNC(=O)c3cc(F)c4c(c3)S(=O)(=O)[C@@H](F)CCO4)cc2n1 [Compound 108] | 16.69 | 3.9 | 64.4 |
| CC#Cc1ccc2c(n1)N(c1ccc3cnc(CNC(=O)c4cc(F)c5c(c4)S(=O)(=O)[C@@H](F)CCO5)cc3n1)CCO2 [Compound 37] | 15.93 | 2 | 31.9 |
| O=C(NCc1cc2nc(N3CCOc4c(N5CC(F)C5)ccnc43)ccc2cn1)c1cc(F)c2c(c1)S(=O)(=O)[C@@H](F)CCO2 [Compound 285] | 9.97 | 9.5 | 94.6 |
| O=C(NCc1cc2nc(N3CCOc4ccc(C5CC5)nc43)ccc2cn1)c1cc(F)c2c(c1)S(=O)(=O)[C@@H](F)CCO2 [Compound 55] | 35.69 | 2.5 | 124 |
| C[C@H]1C[C@@H]1c1ccc2c(n1)N(c1ccc3cnc(CNC(=O)c4cc(F)c5c(c4)S(=O)(=O)[C@@H](F)COC5)cc3n1)CCO2 [Compound 13] | 14.77 | 1.5 | 24.3 |
| O=C(NCc1cc2nc(-c3ccc(OC(F)F)c(C4CC4)n3)ccc2cn1)c1cc(F)c2c(c1)S(=O)(=O)[C@@H](F)CCO2 [Compound 89] | 28.75 | 3.2 | 132 |
| C[C@@H]1CN(c2cccc(-c3ccc4cnc(CNC(=O)c5cc(F)c6c(c5)S(=O)(=O)[C@H](F)CCCO6)cc4n3)n2)C[C@H](C)O1 [Compound 5] | 9.64 | 1.1 | 10.9 |
| COCc1cnc2c(c1)OCCN2c1ccc2cnc(CNC(=O)c3cc(F)c4c(c3)S(=O)(=O)[C@@H](F)CCO4)cc2n1 [Compound 224] | 15.91 | 7.1 | 115 |

Continued by falling IC50 (BRM), values first:

| Ratio (BRG1 IC50 (μM) divided by BRM IC50 (μM)) (BRM) | IC50 (BRM) [nM] | IC50 (BRG-1) [nM] | SMILES |
| --- | --- | --- | --- |
| 20.42 | 10.4 | 161 | O=C(NCc1cc2nc(-c3cccc(OC(F)(F)F)n3)ccc2cn1)c1cc(F)c2c(c1)S(=O)(=O)[C@@H](F)COC2 [Compound 307] |
| 18.19 | 9.2 | 164 | O=C(NCc1cc2nc(N3CCOc4ccc([C@H](F)CF)nc43)ccc2cn1)c1cc(F)c2c(c1)S(=O)(=O)[C@@H](F)CCO2 [Compound 279] |
| 14.41 | 9.1 | 132 | O=C(NCc1cc2nc(N3CCOc4cc(N5CC6CC6C5)cnc43)ccc2cn1)c1cc(F)c2c(c1)S(=O)(=O)[C@@H](F)CCO2 (stereo partly drawn) [Compound 276] |
| 34.05 | 8.5 | 288 | C[C@H](NC(=O)c1cc(F)c2c(c1)S(=O)(=O)[C@@H](F)COC2)c1cc2nc(N3CCOc4ccc(C(F)F)nc43)ccc2cn1 [Compound 260] |
| 21.61 | 7.4 | 160 | C[C@@H]1CCN1c1cnc2c(c1)CCCN2c1ccc2cnc(CNC(=O)c3cc(F)c4c(c3)S(=O)(=O)[C@@H](F)CCO4)cc2n1 [Compound 236] |
| 11.71 | 6.1 | 71.7 | O=C(NCc1cc2nc(N3CCOc4cc(N5CCC(F)CC5)cnc43)ccc2cn1)c1cc(F)c2c(c1)S(=O)(=O)[C@@H](F)CCO2 [Compound 204] |
| 14.89 | 6.1 | 92 | [2H]C1([2H])Oc2c(F)cc(C(=O)NCc3cc4nc(N5CCOc6ccc(C(F)F)nc65)ccc4cn3)cc2S(=O)(=O)[C@@]([2H])(F)C1([2H])[2H] [Compound 203] |
| 11.72 | 5.9 | 69.2 | CCCc1ccnc2c1OCCN2c1ccc2cnc(CNC(=O)c3cc(F)c4c(c3)S(=O)(=O)[C@@H](F)CCO4)cc2n1 [Compound 194] |
| 20.33 | 5.8 | 127 | O=C(NCc1cc2nc(N3CCOc4cc(N5CCC5)cnc43)ccc2cn1)c1cc(F)c2c(c1)S(=O)(=O)[C@@H](F)CCO2 [Compound 190] |
| 12.89 | 5.7 | 89.9 | O=C(NCc1cc2nc(N3CCOc4cc(N5CC[C@H](F)C5)cnc43)ccc2cn1)c1cc(F)c2c(c1)S(=O)(=O)[C@@H](F)CCO2 [Compound 183] |
| 16.27 | 5.5 | 89.1 | [2H]C1([2H])Oc2c(F)cc(C(=O)NCc3cc4nc(N5CCOc6cc(N7CC(F)C7)cnc65)ccc4cn3)cc2S(=O)(=O)[C@@]([2H])(F)C1([2H])[2H] [Compound 171] |
| 32.00 | 5.2 | 172 | O=C(NCc1cc2nc(N3CCOc4ccc([C@H]5C[C@@H]5F)nc43)ccc2cn1)c1cc(F)c2c(c1)S(=O)(=O)[C@@H](F)CCO2 [Compound 164] |
| 22.17 | 4 | 105 | C[C@@H]1C[C@H]1c1cnc2c(c1)OCCN2c1ccc2cnc(CNC(=O)c3cc(F)c4c(c3)S(=O)(=O)[C@@H](F)CCO4)cc2n1 [Compound 115] |
| 18.66 | 2.6 | 53.1 | O=C(NCc1cc2nc(-c3ccc(C(F)F)c(C4CC4)n3)ccc2cn1)c1cc(F)c2c(c1)S(=O)(=O)[C@@H](F)CCO2 [Compound 60] |
| 21.51 | 1.7 | 43.9 | O=C(NCc1cc2nc(N3CCOc4cc(C5(C(F)F)CC5)cnc43)ccc2cn1)c1cc(F)c2c(c1)S(=O)(=O)[C@@H](F)COC2 [Compound 25] |
